Where “and” joins values, the source holds several entries; their conditions need not be identical. Equal values may be shown once.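 The compound was tested at five concentrations on cells cultured in 96-well plates, with a 48-hour exposure period. Abbreviation: GI50, concentration required for 50% inhibition of growth. TGI is the concentration that stops growth completely.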
Tests used:
Assay in all cases: inhibition of tumour cell growth, NCI panel, 48 h
[1] = test system: K-562 leukemia
[2] = test system: SNB-75 CNS
[3] = test system: SK-MEL-5 melanoma
[4] = test system: KM12 colon
[5] = test system: MDA-MB-435
[6] = test system: OVCAR-8 ovarian
[7] = test system: EKVX NSCLC
[8] = test system: OVCAR-4 ovarian
[9] = test system: HOP-92 NSCLC
[10] = test system: A549 NSCLC
[11] = test system: A498 renal
[12] = test system: SK-OV-3 ovarian
[13] = test system: SR leukemia
[14] = test system: SK-MEL-2 melanoma
[15] = test system: M14 melanoma
[16] = test system: 786-0 renal
[17] = test system: BT-549 breast
[18] = test system: NCI-H226 lung
[19] = test system: CCRF-CEM leukemia
[20] = test system: UACC-257 melanoma
[21] = test system: HCC-2998 colon
[22] = test system: HS 578T breast
[23] = test system: LOX IMVI melanoma
[24] = test system: PC-3 prostate
[25] = test system: SF-539 CNS
[26] = test system: OVCAR-3 ovarian
[27] = test system: NCI-H522 lung
[28] = test system: HL-60(TB) leukemia
[29] = test system: RXF 393 renal
[30] = test system: SF-295 CNS
[31] = test system: COLO 205 colon
[32] = test system: HOP-62 NSCLC
[33] = test system: DU-145 prostate
[34] = test system: U251 CNS
[35] = test system: SNB-19 CNS
[36] = test system: UO-31 renal
[37] = test system: NCI/ADR-RES ovarian
[38] = test system: SN12C renal
[39] = test system: NCI-H460 lung
[40] = test system: MALME-3M melanoma
[41] = test system: MDA-MB-231 breast
[42] = test system: RPMI-8226 leukemia
[43] = test system: HCT-15 colon
[44] = test system: NCI-H23 lung
[45] = test system: UACC-62 melanoma
[46] = test system: SF-268 CNS
[47] = test system: SK-MEL-28 melanoma
[48] = test system: SW-620 colon
[49] = test system: OVCAR-5 ovarian
[50] = test system: MCF7 breast
[51] = test system: HT29 colon
[52] = test system: ACHN renal
[53] = test system: CAKI-1 renal
[54] = test system: MOLT-4 leukemia
[55] = test system: IGROV1 ovarian
[56] = test system: TK-10 renal
[57] = test system: HCT-116 colon
[58] = test system: T-47D breast

`C=C1C(=O)O[C@H]2[C@H]1CC/C(COC(=O)CCCCC(=O)OC/C1=C/CC[C@@]3(C)O[C@H]3[C@H]3OC(=O)C(=C)[C@@H]3CC1)=C\CC[C@@]1(C)O[C@@H]21` was tested, and the GI50 [1] was 1.87 µM, the TGI [1] was greater than 100 µM and the GI50 [2] was 20 µM. It also gave a TGI [2] greater than 100 µM, a GI50 [3] of 2.6 µM and a TGI [3] of 7.73 µM. The GI50 [4] was 2.94 µM, the TGI [4] was 12.4 µM and the GI50 [5] was 2.39 µM. It also gave a TGI [5] of 8.04 µM, a GI50 [6] of 2.76 µM and a TGI [6] of 11 µM. For the same compound, the GI50 [7] was 2.83 µM, the TGI [7] was greater than 100 µM and the GI50 [8] was 3.01 µM. The TGI [8] was greater than 100 µM, the GI50 [9] was 1.64 µM and the TGI [9] was 4.56 µM. The GI50 [10] was 58.2 µM, the TGI [10] was greater than 100 µM and the GI50 [11] was 11 µM. The TGI [11] was greater than 100 µM, the GI50 [12] was 33.4 µM and the TGI [12] was greater than 100 µM. It also gave a GI50 [13] of 0.584 µM, a TGI [13] greater than 100 µM and a GI50 [14] of 3.39 µM. For the same compound, the TGI [14] was 75.6 µM, the GI50 [15] was 1.95 µM and the TGI [15] was 5.31 µM. For the same compound, the GI50 [16] was 1.69 µM, the TGI [16] was 3.86 µM and the GI50 [17] was 1.37 µM. The TGI [17] was 3.36 µM, the GI50 [18] was 1.9 µM and the TGI [18] was 4.36 µM. For the same compound, the GI50 [19] was 0.429 µM, the TGI [19] was 4.25 µM and the GI50 [20] was 1.82 µM. It also gave a TGI [20] of 4.4 µM, a GI50 [21] of 2.09 µM and a TGI [21] of 3.94 µM. For the same compound, the GI50 [22] was 1.97 µM, the TGI [22] was 8.46 µM and the GI50 [23] was 1.45 µM. The TGI [23] was 2.9 µM, the GI50 [24] was 2.43 µM and the TGI [24] was 7.46 µM. The GI50 [25] was 2.01 µM, the TGI [25] was 4.96 µM and the GI50 [26] was 0.84 µM. The TGI [26] was 2.14 µM, the GI50 [27] was 1.76 µM and the TGI [27] was 3.57 µM. It also gave a GI50 [28] of 0.722 µM, a TGI [28] of 3.94 µM and a GI50 [29] of 0.967 µM. It also gave a TGI [29] of 2.31 µM, a GI50 [30] of 6.32 µM and a TGI [30] greater than 100 µM. It also gave a GI50 [31] of 1.29 µM, a TGI [31] of 3.31 µM and a GI50 [32] of 3.15 µM. The TGI [32] was 9.61 µM, the GI50 [33] was 3.09 µM and the TGI [33] was greater than 100 µM. It also gave a GI50 [34] of 2.58 µM, a TGI [34] of 8.91 µM and a GI50 [35] of 5.99 µM. For the same compound, the TGI [35] was greater than 100 µM, the GI50 [36] was 1.41 µM and the TGI [36] was 4.57 µM. The GI50 [37] was 5.45 µM, the TGI [37] was greater than 100 µM and the GI50 [38] was 2.62 µM. It also gave a TGI [38] greater than 100 µM, a GI50 [39] of 3.52 µM and a TGI [39] of 25.5 µM. It also gave a GI50 [40] of 2.1 µM, a TGI [40] of 5.66 µM and a GI50 [41] of 1.66 µM. For the same compound, the TGI [41] was 3.57 µM, the GI50 [42] was 1.81 µM and the TGI [42] was 5.59 µM. It also gave a GI50 [43] of 1.73 µM, a TGI [43] of 4.2 µM and a GI50 [44] of 2.76 µM. The TGI [44] was 14 µM, the GI50 [45] was 1.7 µM and the TGI [45] was 4.04 µM. It also gave a GI50 [46] of 3.02 µM, a TGI [46] greater than 100 µM and a GI50 [47] of 2.85 µM. It also gave a TGI [47] greater than 100 µM, a GI50 [48] of 1.17 µM and a TGI [48] of 2.78 µM. It also gave a GI50 [49] of 2.32 µM and a TGI [49] of 5.94 µM.

Compound `Cc1ccc(S(=O)(=O)N2CCN(S(=O)(=O)c3ccc(C)cc3)Cc3ccccc3C2)cc1` has a TGI [1] greater than 100 µM, a TGI [3] greater than 100 µM and a TGI [50] greater than 100 µM. It also gave a TGI [4] greater than 100 µM, a TGI [5] greater than 100 µM and a TGI [6] greater than 100 µM. For the same compound, the TGI [51] was greater than 100 µM, the TGI [7] was greater than 100 µM and the TGI [8] was 90.8 µM. The TGI [52] was greater than 100 µM, the TGI [10] was greater than 100 µM and the TGI [53] was greater than 100 µM. For the same compound, the TGI [13] was greater than 100 µM, the TGI [14] was greater than 100 µM and the TGI [15] was greater than 100 µM. The TGI [16] was greater than 100 µM, the TGI [17] was greater than 100 µM and the TGI [54] was greater than 100 µM. For the same compound, the TGI [55] was greater than 100 µM, the TGI [18] was greater than 100 µM and the TGI [19] was greater than 100 µM. For the same compound, the TGI [20] was greater than 100 µM, the TGI [21] was greater than 100 µM and the TGI [22] was 96.5 µM. The TGI [23] was greater than 100 µM, the TGI [56] was greater than 100 µM and the TGI [25] was greater than 100 µM. For the same compound, the TGI [26] was greater than 100 µM, the TGI [27] was 95 µM and the TGI [28] was greater than 100 µM. For the same compound, the TGI [30] was greater than 100 µM, the TGI [31] was greater than 100 µM and the TGI [32] was 51.5 µM. It also gave a TGI [33] greater than 100 µM, a TGI [35] greater than 100 µM and a TGI [36] greater than 100 µM. It also gave a TGI [37] greater than 100 µM, a TGI [38] greater than 100 µM and a TGI [39] greater than 100 µM. It also gave a TGI [40] greater than 100 µM, a TGI [41] greater than 100 µM and a TGI [42] greater than 100 µM. The TGI [43] was greater than 100 µM, the TGI [44] was greater than 100 µM and the TGI [45] was 36.7 µM. The TGI [46] was greater than 100 µM, the TGI [47] was greater than 100 µM and the TGI [57] was greater than 100 µM. The TGI [48] was greater than 100 µM and the TGI [58] was greater than 100 µM.

For `O=c1cc(-c2cccc(C(F)(F)F)c2)[nH]c2cc3c(cc12)OCO3`, the TGI [1] was greater than 100 µM, the GI50 [3] was 1.27 µM and the TGI [3] was 4.41 µM. For the same compound, the GI50 [50] was 0.95 µM, the TGI [50] was 50 µM and > 100 µM and the GI50 [4] was 0.486 µM. The TGI [4] was 13 µM and > 100 µM, the GI50 [5] was 0.175 µM and the TGI [5] was 1.95 µM and 0.366 µM. The GI50 [6] was 0.482 µM, the TGI [6] was 21.5 µM and 18.5 µM and the GI50 [51] was 3.11 µM. For the same compound, the TGI [51] was 40.8 µM and 13 µM, the TGI [7] was 50 µM and the TGI [9] was 50 µM. For the same compound, the GI50 [52] was 30.5 µM, the TGI [52] was 50 µM and > 100 µM and the GI50 [10] was 0.521 µM. The TGI [10] was 50 µM, the GI50 [11] was 1.47 µM and the TGI [11] was 49.9 µM and 7 µM. For the same compound, the TGI [53] was greater than 100 µM, the GI50 [12] was 0.326 µM and the TGI [12] was 29.1 µM and 16.8 µM. For the same compound, the TGI [13] was greater than 100 µM, the TGI [14] was 3.34 µM and the GI50 [15] was 0.41 µM. For the same compound, the TGI [15] was 50 µM and > 100 µM, the GI50 [16] was 0.902 µM and the TGI [16] was 7.91 µM and 27 µM. The GI50 [17] was 0.359 µM, the TGI [17] was 50 µM and > 100 µM and the GI50 [54] was 0.338 µM. The TGI [54] was 50 µM and > 100 µM, the TGI [55] was 50 µM and the GI50 [21] was 0.493 µM. For the same compound, the TGI [22] was 17.5 µM, the TGI [24] was greater than 100 µM and the GI50 [56] was 22.5 µM. For the same compound, the TGI [56] was greater than 100 µM, the GI50 [25] was 0.483 µM and the TGI [25] was 2.53 µM and 6.6 µM. For the same compound, the TGI [27] was greater than 100 µM, the TGI [28] was 0.705 µM and the GI50 [31] was 5.1 µM. For the same compound, the TGI [31] was 24 µM and > 100 µM, the GI50 [32] was 0.517 µM and the TGI [32] was 16.8 µM and 22.5 µM. The GI50 [34] was 0.145 µM, the GI50 [35] was 0.427 µM and the TGI [35] was 50 µM and 7.58 µM. The GI50 [36] was 0.315 µM, the GI50 [37] was 0.251 µM and the TGI [37] was 2.14 µM and 0.829 µM. The GI50 [38] was 0.735 µM, the TGI [38] was 50 µM and > 100 µM and the GI50 [39] was 0.353 µM. For the same compound, the TGI [39] was 4.08 µM and 11 µM, the TGI [40] was greater than 100 µM and the TGI [41] was 30.1 µM. The TGI [42] was greater than 100 µM, the GI50 [43] was 0.4 µM and the GI50 [44] was 0.276 µM. The GI50 [45] was 0.356 µM, the GI50 [47] was 0.455 µM and the TGI [47] was 50 µM and 53.9 µM. For the same compound, the GI50 [57] was 1.98 µM and 0.482 µM, the TGI [57] was 19.1 µM and 29.4 µM and the GI50 [48] was 0.326 µM. The TGI [48] was 50 µM and > 100 µM, the GI50 [58] was greater than 100 µM and the TGI [58] was greater than 100 µM. For the same compound, the GI50 [49] was greater than 100 µM and the TGI [49] was 50 µM and > 100 µM.
